Our source for the inhibition values is ChEMBL document CHEMBL4385643, “Design of a brain-penetrant CDK4/6 inhibitor for glioblastoma” (Bioorg Med Chem Lett, 2019).

The structures appear in SMILES notation.

In test [1] the target is Aurora kinase B (Homo sapiens) (UniProt Q96GD4). In words: Inhibition of recombinant full length human His-tagged Aurora B expressed in baculovirus expression system at 0.1 uM using serine/threonine-1 peptide as substrate incubated for 60 mins by Z'-LYTE assay relative to control.
Test [2] addresses Protein-tyrosine kinase 6 (Homo sapiens) (UniProt Q13882). In words: Inhibition of recombinant full length human His-tagged BRK expressed in baculovirus expression system at 0.1 uM using tyrosine-1 peptide as substrate incubated for 60 mins by Z'-LYTE assay relative to control.
Test [3] concerns the target Serine/threonine-protein kinase BRSK1 (Homo sapiens) (UniProt Q8TDC3). In words: Inhibition of recombinant full length human GST-tagged BRSK1 expressed in baculovirus expression system at 0.1 uM using serine/threonine-21 peptide as substrate incubated for 60 mins by Z'-LYTE assay relative to control.
In test [4] the target is Receptor tyrosine-protein kinase erbB-4 (Homo sapiens) (UniProt Q15303). Nature of the test: Inhibition of recombinant human GST-tagged ERBB4 catalytic domain (708 to 993 residues) expressed in baculovirus expression system at 0.1 uM using tyrosine-1 peptide as substrate incubated for 60 mins by Z'-LYTE assay relative to control.
The target in test [5] is Serine/threonine-protein kinase Sgk1 (Homo sapiens) (UniProt O00141). Nature of the test: Inhibition of recombinant human GST-tagged SGK1 catalytic domain (60 to 431 residues) expressed in baculovirus expression system at 0.1 uM using serine/threonine-6 peptide as substrate incubated for 60 mins by Z'-LYTE assay relative to control.
Test [6] has as its target Angiopoietin-1 receptor (Homo sapiens) (UniProt Q02763). In words: Inhibition of recombinant human GST-tagged TIE2 (817 to 1101 residues) expressed in baculovirus expression system at 0.1 uM using tyrosine-5 peptide as substrate incubated for 60 mins by Z'-LYTE assay relative to control.
Test [7] concerns the target CDK18/Cyclin Y (Homo sapiens) (UniProt Q07002+Q8ND76). In words: Inhibition of recombinant full length human GST-tagged CDK18/Cyclin Y (2 to end amino acids) expressed in insect expression system at 0.1 uM using serine/threonine-12 peptide as substrate incubated for 60 mins by Z'-LYTE assay relative to control.
Test [8] has as its target Mitogen-activated protein kinase 14 (Homo sapiens) (UniProt Q16539). Nature of the test: Inhibition of recombinant full length human GST-tagged p38alpha expressed in Escherichia coli expression system at 0.1 uM using serine/threonine-15 peptide as substrate incubated for 60 mins by Z'-LYTE assay relative to control.
Test [9] deals with Proto-oncogene tyrosine-protein kinase Src (Homo sapiens) (UniProt P12931). Nature of the test: Inhibition of recombinant full length human His-tagged SRC expressed in baculovirus expression system at 0.1 uM using tyrosine-2 peptide as substrate incubated for 60 mins by Z'-LYTE assay relative to control.
For test [10], the target named is Calcium/calmodulin-dependent protein kinase type IV (Homo sapiens) (UniProt Q16566). In words: Inhibition of recombinant full length human full length GST-tagged CAMK4 expressed in Escherichia coli expression system at 0.1 uM using serine/threonine-13 peptide as substrate incubated for 60 mins by Z'-LYTE assay relative to control.
Test [11] deals with Calcium/calmodulin-dependent protein kinase kinase 2 (Homo sapiens) (UniProt Q96RR4). In words: Inhibition of tracer 236 binding to recombinant full length human GST-tagged CAMKK2 expressed in baculovirus expression system at 0.1 uM measured after 60 mins by Lanthascreen assay relative to control.
Test [12] concerns RAF proto-oncogene serine/threonine-protein kinase (Homo sapiens), P04049 [Y340D,Y341D]. Nature of the test: Inhibition of recombinant human GST-tagged RAF1 Y340D Y341D mutant catalytic domain (306 to 648 residues) expressed in baculovirus expression system at 0.1 uM using serine/threonine-3 peptide as substrate incubated for 60 mins by Z'-LYTE assay relative to control.
The target of test [13] is Tyrosine-protein kinase ABL1 (Homo sapiens) (UniProt P00519). Nature of the test: Inhibition of recombinant full length human His-tagged ABL1 expressed in baculovirus expression system at 0.1 uM using tyrosine-2 peptide as substrate incubated for 60 mins by Z'-LYTE assay relative to control.
For test [14], the target named is Leucine-rich repeat serine/threonine-protein kinase 2 (Homo sapiens) (UniProt Q5S007). In words: Inhibition of recombinant human GST-tagged LRRK2 catalytic domain (970 to 2527 amino acids) expressed in baculovirus expression system at 0.1 uM using ERM (LRRKtide) peptide as substrate incubated for 60 mins by Adapta assay relative to control.
Test [15] deals with Phosphorylase b kinase gamma catalytic chain, skeletal muscle/heart isoform (Homo sapiens) (UniProt Q16816). In words: Inhibition of recombinant full length human GST-tagged PHKG1 expressed in baculovirus expression system at 0.1 uM using serine/threonine-7 peptide as substrate incubated for 60 mins by Z'-LYTE assay relative to control.
Test [16] deals with Inhibitor of nuclear factor kappa-B kinase subunit alpha (Homo sapiens) (UniProt O15111). In words: Inhibition of recombinant full length human His-tagged IKKalpha expressed in baculovirus expression system at 0.1 uM incubated for 60 mins by Adapta assay relative to control.
Test [17] addresses Tyrosine-protein kinase BTK (Homo sapiens) (UniProt Q06187). Nature of the test: Inhibition of recombinant full length human His-tagged BTK expressed in baculovirus expression system at 0.1 uM using tyrosine-1 peptide as substrate incubated for 60 mins by Z'-LYTE assay relative to control.
Test [18] addresses Serine/threonine-protein kinase TAO2 (Homo sapiens) (UniProt Q9UL54). In words: Inhibition of recombinant human GST-tagged TAO2 catalytic domain (1 to 314 residues) expressed in baculovirus expression system at 0.1 uM using serine/threonine-7 peptide as substrate incubated for 60 mins by Z'-LYTE assay relative to control.
In test [19] the target is Serine/threonine-protein kinase mTOR (Homo sapiens) (UniProt P42345). In words: Inhibition of recombinant human GST-tagged mTOR catalytic domain (1360 to 2549 residues) expressed in baculovirus expression system at 0.1 uM using serine/threonine-11 peptide as substrate incubated for 60 mins by Z'-LYTE assay relative to control.
Test [20] addresses Ribosomal protein S6 kinase alpha-3 (Homo sapiens) (UniProt P51812). Nature of the test: Inhibition of recombinant full length human His-tagged RSK2 expressed in baculovirus expression system at 0.1 uM using serine/threonine-6 peptide as substrate incubated for 60 mins by Z'-LYTE assay relative to control.
Test [21] concerns the target Protein kinase C beta type (Homo sapiens) (UniProt P05771). Nature of the test: Inhibition of recombinant full length human GST-tagged PKCbeta1 expressed in insect expression system at 0.1 uM using serine/threonine-7 peptide as substrate incubated for 60 mins by Z'-LYTE assay relative to control.
In test [22] the target is Casein kinase I isoform gamma-2 (Homo sapiens) (UniProt P78368). Nature of the test: Inhibition of recombinant full length human His-tagged CK1 gamma 2 expressed in baculovirus expression system at 0.1 uM using serine/threonine-5 peptide as substrate incubated for 60 mins by Z'-LYTE assay relative to control.
In test [23] the target is Tyrosine-protein kinase Lck (Homo sapiens) (UniProt P06239). Nature of the test: Inhibition of recombinant full length human His-tagged LCK expressed in baculovirus expression system at 0.1 uM using tyrosine-2 peptide as substrate incubated for 60 mins by Z'-LYTE assay relative to control.

Sequence of Calcium/calmodulin-dependent protein kinase kinase 2 (Homo sapiens) (Q96RR4 2-588 limits assumed): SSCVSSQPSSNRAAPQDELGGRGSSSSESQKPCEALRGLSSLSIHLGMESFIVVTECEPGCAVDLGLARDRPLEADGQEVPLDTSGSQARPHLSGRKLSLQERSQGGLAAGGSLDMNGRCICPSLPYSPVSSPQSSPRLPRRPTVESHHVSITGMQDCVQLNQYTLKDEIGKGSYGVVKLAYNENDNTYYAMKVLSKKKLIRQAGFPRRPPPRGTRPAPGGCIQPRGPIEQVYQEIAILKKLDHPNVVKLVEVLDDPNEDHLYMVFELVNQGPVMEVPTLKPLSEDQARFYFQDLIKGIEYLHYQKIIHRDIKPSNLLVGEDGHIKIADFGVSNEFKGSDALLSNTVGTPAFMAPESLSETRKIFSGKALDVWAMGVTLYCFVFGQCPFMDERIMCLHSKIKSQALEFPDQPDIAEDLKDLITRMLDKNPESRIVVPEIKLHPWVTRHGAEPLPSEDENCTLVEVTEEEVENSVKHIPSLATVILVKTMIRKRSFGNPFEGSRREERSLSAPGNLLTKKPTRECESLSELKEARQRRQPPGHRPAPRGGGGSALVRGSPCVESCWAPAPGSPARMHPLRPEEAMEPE
Sequence of Calcium/calmodulin-dependent protein kinase type IV (Homo sapiens) (Q16566 whole entry): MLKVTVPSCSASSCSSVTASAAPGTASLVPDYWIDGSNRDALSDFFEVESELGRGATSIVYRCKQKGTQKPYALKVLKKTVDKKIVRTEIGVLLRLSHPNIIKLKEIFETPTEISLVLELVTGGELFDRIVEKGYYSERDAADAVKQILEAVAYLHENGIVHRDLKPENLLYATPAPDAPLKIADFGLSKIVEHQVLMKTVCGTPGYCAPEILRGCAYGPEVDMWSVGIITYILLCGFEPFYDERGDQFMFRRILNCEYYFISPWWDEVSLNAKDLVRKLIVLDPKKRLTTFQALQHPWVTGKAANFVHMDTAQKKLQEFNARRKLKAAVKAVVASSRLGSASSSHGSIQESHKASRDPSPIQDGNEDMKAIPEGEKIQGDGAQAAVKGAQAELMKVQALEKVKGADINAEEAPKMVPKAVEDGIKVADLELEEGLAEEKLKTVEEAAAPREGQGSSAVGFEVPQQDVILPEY
Sequence of Angiopoietin-1 receptor (Homo sapiens) (Q02763 whole entry, the tested form may be a part): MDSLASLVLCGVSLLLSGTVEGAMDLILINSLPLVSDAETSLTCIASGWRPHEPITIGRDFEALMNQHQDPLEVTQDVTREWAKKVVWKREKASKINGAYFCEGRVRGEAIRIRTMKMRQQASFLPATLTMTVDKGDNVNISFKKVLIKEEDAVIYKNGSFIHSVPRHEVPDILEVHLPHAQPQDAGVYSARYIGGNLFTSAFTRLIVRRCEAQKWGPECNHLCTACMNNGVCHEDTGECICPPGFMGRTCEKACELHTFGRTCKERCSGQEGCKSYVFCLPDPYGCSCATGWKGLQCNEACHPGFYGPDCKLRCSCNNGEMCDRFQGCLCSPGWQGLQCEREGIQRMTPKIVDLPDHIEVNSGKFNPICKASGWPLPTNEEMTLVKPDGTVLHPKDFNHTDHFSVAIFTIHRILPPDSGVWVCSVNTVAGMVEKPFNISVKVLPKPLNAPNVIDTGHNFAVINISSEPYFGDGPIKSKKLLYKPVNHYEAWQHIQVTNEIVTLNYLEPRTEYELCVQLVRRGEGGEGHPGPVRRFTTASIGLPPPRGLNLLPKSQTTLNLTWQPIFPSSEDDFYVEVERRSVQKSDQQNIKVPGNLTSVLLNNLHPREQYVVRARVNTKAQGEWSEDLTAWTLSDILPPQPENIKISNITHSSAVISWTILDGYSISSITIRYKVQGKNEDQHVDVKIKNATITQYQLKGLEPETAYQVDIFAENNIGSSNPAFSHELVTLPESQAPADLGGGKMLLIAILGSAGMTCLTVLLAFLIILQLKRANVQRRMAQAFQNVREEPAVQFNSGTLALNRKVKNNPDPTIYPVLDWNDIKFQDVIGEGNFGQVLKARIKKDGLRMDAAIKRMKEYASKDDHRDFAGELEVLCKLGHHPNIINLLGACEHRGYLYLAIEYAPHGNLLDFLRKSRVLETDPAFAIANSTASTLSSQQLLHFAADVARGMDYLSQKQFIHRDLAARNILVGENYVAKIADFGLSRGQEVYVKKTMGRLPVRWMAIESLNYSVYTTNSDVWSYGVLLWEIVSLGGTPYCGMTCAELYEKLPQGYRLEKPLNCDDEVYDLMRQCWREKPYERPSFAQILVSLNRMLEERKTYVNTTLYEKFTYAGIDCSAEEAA
Sequence of Serine/threonine-protein kinase BRSK1 (Homo sapiens) (Q8TDC3 whole entry, the tested form may be a part): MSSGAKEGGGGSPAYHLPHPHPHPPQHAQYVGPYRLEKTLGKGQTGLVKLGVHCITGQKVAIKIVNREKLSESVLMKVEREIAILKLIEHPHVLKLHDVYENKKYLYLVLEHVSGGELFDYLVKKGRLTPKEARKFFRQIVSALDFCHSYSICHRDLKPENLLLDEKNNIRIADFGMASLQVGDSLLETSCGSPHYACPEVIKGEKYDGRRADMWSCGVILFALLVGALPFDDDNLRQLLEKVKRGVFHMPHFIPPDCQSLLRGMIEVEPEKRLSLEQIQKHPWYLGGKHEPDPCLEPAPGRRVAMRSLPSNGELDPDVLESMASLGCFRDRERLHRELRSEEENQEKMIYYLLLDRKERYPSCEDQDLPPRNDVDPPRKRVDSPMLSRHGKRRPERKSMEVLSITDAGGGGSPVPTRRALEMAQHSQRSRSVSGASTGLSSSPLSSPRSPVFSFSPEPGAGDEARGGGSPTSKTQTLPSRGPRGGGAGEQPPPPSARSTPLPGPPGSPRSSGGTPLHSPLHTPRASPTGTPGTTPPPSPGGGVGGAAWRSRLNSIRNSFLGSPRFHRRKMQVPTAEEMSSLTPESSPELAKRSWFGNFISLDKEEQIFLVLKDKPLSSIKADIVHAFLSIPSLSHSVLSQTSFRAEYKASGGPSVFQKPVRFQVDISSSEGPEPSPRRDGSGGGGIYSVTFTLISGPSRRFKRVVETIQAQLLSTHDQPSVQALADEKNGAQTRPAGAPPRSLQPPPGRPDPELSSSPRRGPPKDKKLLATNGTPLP
Sequence of Tyrosine-protein kinase ABL1 (Homo sapiens) (P00519 whole entry, the tested form may be a part): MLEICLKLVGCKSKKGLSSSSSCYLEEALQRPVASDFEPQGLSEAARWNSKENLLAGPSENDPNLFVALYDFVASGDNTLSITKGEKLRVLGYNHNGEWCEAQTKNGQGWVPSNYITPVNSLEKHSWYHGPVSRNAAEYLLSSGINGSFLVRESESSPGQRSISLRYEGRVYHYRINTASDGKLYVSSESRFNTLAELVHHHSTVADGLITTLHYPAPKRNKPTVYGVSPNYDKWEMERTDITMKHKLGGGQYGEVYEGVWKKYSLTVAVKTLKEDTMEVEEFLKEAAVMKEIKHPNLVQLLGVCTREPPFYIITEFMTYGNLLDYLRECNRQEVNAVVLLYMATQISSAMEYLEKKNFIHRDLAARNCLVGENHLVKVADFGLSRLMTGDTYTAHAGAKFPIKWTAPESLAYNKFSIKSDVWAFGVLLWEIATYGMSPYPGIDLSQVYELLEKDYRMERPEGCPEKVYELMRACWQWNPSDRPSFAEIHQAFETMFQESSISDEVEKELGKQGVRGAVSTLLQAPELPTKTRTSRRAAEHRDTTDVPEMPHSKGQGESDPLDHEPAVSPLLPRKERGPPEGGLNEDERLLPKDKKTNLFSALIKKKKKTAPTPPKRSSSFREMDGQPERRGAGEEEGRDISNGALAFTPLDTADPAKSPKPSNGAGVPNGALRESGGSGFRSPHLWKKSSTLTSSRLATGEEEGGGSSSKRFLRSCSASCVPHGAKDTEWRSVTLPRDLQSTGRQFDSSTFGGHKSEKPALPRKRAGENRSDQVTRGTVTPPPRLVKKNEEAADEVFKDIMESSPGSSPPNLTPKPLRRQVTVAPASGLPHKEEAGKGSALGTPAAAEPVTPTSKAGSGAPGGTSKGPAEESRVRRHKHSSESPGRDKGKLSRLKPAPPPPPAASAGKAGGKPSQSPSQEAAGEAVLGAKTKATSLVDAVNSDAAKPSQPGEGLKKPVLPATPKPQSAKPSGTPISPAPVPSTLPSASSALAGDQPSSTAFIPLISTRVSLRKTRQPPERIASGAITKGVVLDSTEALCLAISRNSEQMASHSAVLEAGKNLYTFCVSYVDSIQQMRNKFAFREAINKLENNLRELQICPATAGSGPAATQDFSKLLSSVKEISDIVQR
Sequence of Inhibitor of nuclear factor kappa-B kinase subunit alpha (Homo sapiens) (O15111 whole entry): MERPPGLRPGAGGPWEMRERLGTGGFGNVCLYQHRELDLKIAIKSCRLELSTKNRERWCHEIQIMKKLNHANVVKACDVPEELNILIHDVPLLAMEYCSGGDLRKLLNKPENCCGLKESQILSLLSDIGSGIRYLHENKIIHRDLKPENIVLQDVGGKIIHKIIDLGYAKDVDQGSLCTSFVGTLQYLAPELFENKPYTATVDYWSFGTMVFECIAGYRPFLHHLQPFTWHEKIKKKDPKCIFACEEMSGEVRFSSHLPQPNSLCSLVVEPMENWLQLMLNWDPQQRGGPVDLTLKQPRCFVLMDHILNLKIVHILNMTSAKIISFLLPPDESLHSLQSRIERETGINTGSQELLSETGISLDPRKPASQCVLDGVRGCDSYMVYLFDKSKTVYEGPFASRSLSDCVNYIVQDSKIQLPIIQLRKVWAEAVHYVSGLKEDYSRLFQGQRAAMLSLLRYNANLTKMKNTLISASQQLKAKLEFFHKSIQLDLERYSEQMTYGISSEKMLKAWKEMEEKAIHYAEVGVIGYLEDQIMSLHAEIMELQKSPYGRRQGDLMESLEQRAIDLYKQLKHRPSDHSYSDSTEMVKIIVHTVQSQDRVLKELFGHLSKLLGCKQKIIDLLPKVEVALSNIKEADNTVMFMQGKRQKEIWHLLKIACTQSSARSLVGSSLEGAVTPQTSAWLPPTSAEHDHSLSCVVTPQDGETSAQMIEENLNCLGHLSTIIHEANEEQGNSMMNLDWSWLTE

Broadly, the inhibition is the drop in the measured response relative to a control, in per cent. With `CCN1CCN(Cc2ccc(Nc3ncc(F)c(-c4cc(F)c5nc(C)n(C(C)C)c5c4)n3)nc2)CC1` [ABEMACICLIB], the inhibition in test [1] was 14.5%; in test [2] it was 5%; in test [3], 18%; in test [4], 3%; in test [5], 64%; in test [6], -2%. The inhibition is 29% in test [7]; -1% in [8]; 7.5% in [9]; 2.5% in test [10]; 69.4% in [11]; 0% in [12]. In addition, the inhibition stood at 1.5% in [13]; 74.6% in [14]; 62% in test [15]; 53.1% in test [16]; 3% in test [17]; 56% in test [18]. Further, the inhibition amounted to 9.5% in test [19]; 10.5% in test [20]; 38% in test [21]; 7% in test [22]; 12.5% in test [23].
Turning to `CCN1CC2(C1)CN(c1ccc(Nc3ncc(F)c(-c4cnn5c4[C@H](C)CCCC5)n3)nc1)C2`, the inhibition in test [1] was 7.5%; in test [2] it was 6.5%; in test [3], 44%; in test [4] it was -6.5%; in test [5], 72.5%; in [6], -0.5%. The inhibition in [7] was 30.5%; in test [8], 3%; in [9], 1.5%; in test [10], 10%; in [11] it was 44%; in [12], -0.5%. The inhibition in test [13] is 3.5%; in test [14], 97.5%; in test [15], 64%; in [16] it was -2%; in test [17], 4%; in [18], 12.5%. For the same molecule, the inhibition in test [19] came out at 2%; in [20], 53%; in [21], 4.5%; in [22] it was 3.5%; in [23], 3.5%.
